In general, IC50 refers to the concentration needed to halve the response being measured.

The values that follow come from patent US11104677B2, “Toll-like receptor 9 antagonists” (FRAUNHOFER-GESELLSCHAFT ZUR FÖRDERUNG DER ANGEWANDTEN …, priority 2015, dated 2021).

One assay has as its target T1, TLR9 (Homo sapiens, UniProt Q9NR96).
T1 construct: expressed in transfected cells; host or cells: NIH 3T3 fibroblasts (mouse), stably transfected, NF-kB driven SEAP reporter
T1 sequence (Q9NR96 26-1032): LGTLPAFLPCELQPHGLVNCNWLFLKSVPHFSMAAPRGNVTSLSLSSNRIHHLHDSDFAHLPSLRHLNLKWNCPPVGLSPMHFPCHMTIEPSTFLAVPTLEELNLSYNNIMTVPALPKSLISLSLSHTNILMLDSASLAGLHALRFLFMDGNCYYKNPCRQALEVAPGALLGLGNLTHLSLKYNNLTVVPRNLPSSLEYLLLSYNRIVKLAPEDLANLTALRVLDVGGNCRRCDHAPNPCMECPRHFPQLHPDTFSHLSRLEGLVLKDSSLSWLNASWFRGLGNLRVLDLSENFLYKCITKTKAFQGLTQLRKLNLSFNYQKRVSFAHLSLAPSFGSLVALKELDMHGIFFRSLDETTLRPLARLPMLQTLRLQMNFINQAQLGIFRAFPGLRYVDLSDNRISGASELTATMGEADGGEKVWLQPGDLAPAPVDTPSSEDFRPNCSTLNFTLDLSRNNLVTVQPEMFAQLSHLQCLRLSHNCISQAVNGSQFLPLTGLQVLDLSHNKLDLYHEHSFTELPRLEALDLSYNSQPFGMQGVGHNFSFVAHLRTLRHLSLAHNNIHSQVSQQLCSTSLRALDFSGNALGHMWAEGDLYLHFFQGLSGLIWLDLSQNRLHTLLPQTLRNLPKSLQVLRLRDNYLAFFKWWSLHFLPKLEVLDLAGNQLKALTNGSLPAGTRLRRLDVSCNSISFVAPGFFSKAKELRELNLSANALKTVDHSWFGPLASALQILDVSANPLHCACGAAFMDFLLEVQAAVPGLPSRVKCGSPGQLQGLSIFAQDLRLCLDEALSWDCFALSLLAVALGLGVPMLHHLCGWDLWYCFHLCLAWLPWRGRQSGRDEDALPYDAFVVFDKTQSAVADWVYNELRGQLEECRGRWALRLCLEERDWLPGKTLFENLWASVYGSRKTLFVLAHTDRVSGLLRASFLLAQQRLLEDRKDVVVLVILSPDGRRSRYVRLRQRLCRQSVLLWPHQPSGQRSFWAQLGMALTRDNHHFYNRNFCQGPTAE
As to the kind of experiment: cell-based reporter assay (NIH 3T3 reporter cell line expressing TLR9, NF-kB driven SEAP, stimulated with CpG ODN 2216). As to conditions: Table 5; first 30 candidates; ODN 2216 agonist; n≥3; read-out: IC50 in. How it is done: In context with the present invention, the ‘IC50 value’ is the half maximum inhibitory concentration which is a measure of the effectiveness of a substance inhibiting the function of the TLR9. The IC50 value can be determined by a functional antagonist assay or a competition binding assay. Preferably, the IC50 value is determined by the cell-based reporter assay in section 3, below, of the examples.
A cell based test-system that allows PAMPs to be identified and differentiated via pattern recognition receptors (PRRs) in a reporter gene assay was used (DE 10 2006 031 483, EP 2 041 172). For this assay human PRRs and co-receptors were stably transfected and expressed in NIH 3T3 fibroblasts. This cell line expresses no other PRRs and contains a reporter gene which is activated by PRR-activation. The induction of receptor complexes by their ligands leads, after a signalling cascade, to an activation of transcription factor NF-kB, which regulates the expression of an additional integrated reporter gene, a secreted alkaline phosphatase (SEAP) (Burger-Kentischer, A.; Abele, I. S.; Finkelmeier, D.; Wiesmüller, K.-H.; Rupp, S., A new cell-based innate immune receptor assay for the examination of receptor activity, ligand specificity, signalling pathways and the detection of pyrogens. J. Immunol. Methods 2010, 358 (1), 93-103).
This test system mimics elements of the innate human immune system and can selectively recognize a large number of PAMPs with high sensitivity. Consequently, the PRR-specific cell-based high-throughput feature of the reporter cell lines will provide a fast, flexible and convenient means for lead compound screening in the pharmaceutical drug development fields. For the in vitro screening of the top candidates identified at IDR, the Fraunhofer IGB used this cell-based reporter system to identify TLR9 antagonists in order to determine their activity as well their biocompatibility. Within a first step the NIH3T3 cell line expressing TLR9 was used to measure the inhibitory effect of the TLR9 antagonists.
For the experiment the reporter cell line expressing TL9 was plated in 96-well cell culture plates at a density of 0.3×10^5 cells in DMEM media supplemented with 10% FCS (Invitrogen), 1% L-glutamine (200 mM Invitrogen) and 1% Penicillin-Streptomycin (PenStrep: 100×, Invitrogen). The cells were incubated for 16 h to grow adherent monolayers at 37° C. in a 5% saturated CO2 humidified atmosphere. After overnight incubation, the media was removed and replaced by DMEM medium supplemented with 1% PenStrep, 1% L-glutamine and 0.5% FCS. The media change is important to avoid a unspecific background signal, caused by active remaining phosphatases present in the FCS. The cells are then stimulated with a specific ligand non-methylated CpG ODN 2216 agonist (Invivogen) and the potential antagonists using different concentrations, namely within a range of concentrations of the potential antagonists starting with 0.025 μM (for the antagonist with the highest activity) up to 14 mM for the antagonists with lowest activities.
The ODN ligand has the sequence 5′-ggGGGACGA:TCGTCgggggg-3′ (SEQ ID No. 1). Those represented by capital letters are phosphodiesters, and those in small letters are phosphorothioate. The Palindrome is underlined.
The cells were again incubated in a humidified atmosphere for 16h leading to the expression or reduced expression of SEAP and its secretion into the media. Binding of the antagonist leads to a block of the TLR9, resulting in no or in a reduced expression of the reporter gene (SEAP). Therefore, 50 μl supernatant were taken from the cells and transferred into a 96-well PS microplate flat bottom (Greiner BIO-ONE). The enzyme substrate reaction was initiated by adding 50 μl of the specific substrate. SEAP catalyses the hydrolysis of pNPP to the final product para-nitrophenol (yellow), which can be detected in a photometric analysis using an UV-VIS reader at 405 nm. […]
Background: In a reporter assay the amount or activity of a reporter protein is the signal.
With `c1ccc(-c2cc(-c3ccncc3)nc3ccccc23)cc1` [T6306924, n1c2c(cccc2)c(cc1-c1ccncc1)-c1ccccc1], the IC50 is 870 µM.

Regarding `COc1cccc(OCCCCn2cnc3ccccc32)c1` [T6416309, O(CCCCn1c2c(nc1)cccc2)c1cc(OC)ccc1], the half-maximal inhibitory concentration (IC50) is 13.3 µM.

With `c1ccc(N2CCN(c3ccc4ccccc4n3)CC2)cc1` [T6495030, n1c2c(ccc1N1CCN(CC1)c1ccccc1)cccc2], the IC50 was 220 µM.

`C(=C\c1ccc2ccccc2n1)/c1ccc(N2CCOCC2)cc1` [T6549007, O1CCN(CC1)c1ccc(cc1)\C═C\c1nc2c(cc1)cccc2]: the IC50 stood at 4320 µM.

With `COc1ccc(OCCN(C)c2ncnc3c2oc2ccccc23)cc1` [T6593995, o1c2c(ncnc2N(CCOc2ccc(OC)cc2)C)c2c1cccc2], the IC50 was 905 µM.

On to `COc1ccc(/C=C/c2ccc3ccccc3n2)cc1OC` [T6895608, O(C)c1cc(ccc1OC)\C═C\c1nc2c(cc1)cccc2], for which the IC50 came out at 8.91 µM.

Still in this assay, the particulars now being: in the presence of 5 μM of the ODN 2216 agonist; read-out: IC50 in.
For `c1ccc(Cn2cc(CNCc3ccc(CN4CCOCC4)cc3)c(-c3cccnc3)n2)cc1` [T6216617], the IC50 worked out at 7.56 µM.

As for `Clc1ccc(CN2CCC(NCc3ccc(-n4ccnc4)cc3)CC2)cc1` [T6683896], the IC50 came out at 0.896 µM.
